# Assay results: patent US6121463A, “Alkyl-4-silylheterocyclic phenols and thiophenols useful as antioxidant agents” (priority 1998, dated 2000)
# Assays:
# ICAM-1 = conditions: vascular endothelial cells; Mauri, N. et al.; cited from earlier work
# [1] = Animal parameters in male Sprague-Dawley rats; type: in vivo, Sprague-Dawley rat; conditions: 0.3% diet, 4 days; for body wt. as a percent of control / food (grams eaten per day per rat) as a percent of control / lw/bw (liver weight/body weight) as a percent of control: N=5; for mortality at 96 h: rat, in vivo, po, N=5, read-out: mortality (deaths per group)
# Text: (§1) A typical experiment consists of 4-6 groups of rats (N=5 per group) with 1 group being a control which receives no MDL compound and the other groups being treated with 0.3% MDL compound. Some of the compounds are either repeated at 0.3% or evaluated again at the lower dose of 0.1%. House Male Sprague-Dawley rats, 50-100 g, (Harlan Laboratories, Indianapolis, Ind.) in groups of 5, feeding ad libitum water and Purina Rodent chow (#5002) with or without MDL compound as a dietary admixture for 4 days. Make dietary admixtures (0.3%) by mixing 1.2 grams of an MDL compound with 400 grams of Purina rodent chow (#5002). Mix the MDL compound with approximately 50 grams of food using a mortar and pestle. This is added to the remainder of the food and mixed for 3 hours on a rotary mixer. In the morning of day 5, anesthetize non-fasted rats with carbon dioxide, and collect blood by cardiac puncture. Sacrifice rats by cervical dislocation. Record body weights and liver weights in grams. Record food consumption as grams.cndot.day^-1 .cndot.rat^-1. Deaths are recorded as mortality. Use aliquots of fresh serum for clinical chemistries, thiobarbituric acid reactive substances (TBARS) and conjugated diene measurements. Freeze aliquots of serum (~0.5mL) and whole livers at -20° C. for compound and metabolite concentration determination at a later time.
# [2] = Serum clinical chemistries in male Sprague-Dawley rats after dietary admixture; type: in vivo, Sprague-Dawley rat; conditions: 0.3% diet, 4 days, N=5
# Text: as §1
# Allow blood to clot at room temperature for 30 minutes. Obtain serum after centrifugation for 10 min at 4° C. at 3000 rpm in a Beckman J-6M/E centrifuge with a JS-4.2 rotor. Analyze fresh serum by a COBAS MIRA S autoanalyzer (Roche Diagnostics) using Roche diagnostic reagents for the following clinical chemistry measurements: alkaline phosphatase (ALP, kit #44553), alanine transaminase (ALT, kit #42375), aspartate aminotransferase (AST, kit #42381), total cholesterol (CHOL, kit #44334), triglyceride (TG, kit #44120), and glucose (GLU, kit #44558). Calculate ALP, ALT, and AST as units/L. Calculate cholesterol, triglycerides, and glucose as mg/dL.
# [3] = test system: oxidation of serum lipids; assay: Thiobarbituric acid reactive substances (TBARS) assay in serum of treated rats; type: in vivo, Sprague-Dawley rat; conditions: 0.3% diet, 4 days, male rats, N=5; CuSO4 oxidation of serum, 37° C., 3 hr
# Text: as §1, with “Sacrifice rats by cervical dislocation. Record body weights and liver weights in grams. Record food consumption as grams.cndot.day^-1 .cndot.rat^-1.” left out, “Use aliquots of fresh serum for clinical chemistries, thiobarbituric acid reactive substances (TBARS) and conjugated diene measurements. Freeze aliquots of serum (~0.5mL) and whole livers at -20° C. for compound and metabolite concentration determination at a later time.” left out
# In this assay the oxidation of serum lipids is initiated with CuSO4, resulting in the formation of aldehydes, such as malondialdehyde (MDA). Upon incubation with thiobarbituric acid, the absorbance of the aldehydes can be detected at 530-540 nm. […] Measure absorbances at 540 nm using a Biotek model EL311 microplate reader. The nmoles of MDA produced are calculated from a standard curve of 0 to 10 nmoles of MDA prepared from malonaldehyde bis(dimethylacetal). […]
# oxidation of lipids = assay: Conjugated diene determination (lag phase) in pooled serum of treated rats; type: in vivo, Sprague-Dawley rat; conditions: 0.3% diet, 4 days; mean of 2 determinations of pooled samples, N=5; control = 61 min.
# Text: as §1, with “Use aliquots of fresh serum for clinical chemistries, thiobarbituric acid reactive substances (TBARS) and conjugated diene measurements. Freeze aliquots of serum (~0.5mL) and whole livers at -20° C. for compound and metabolite concentration determination at a later time.” left out
# Conjugated diene lag phase is another indicator of the oxidation of lipids. […] Measure the absorbances of all cuvettes and set the instrument baseline to zero using the lowest absorbing sample. […] Record the absorbance of each cuvette at 2 min intervals for a period of 840 min. […]
SMILES,inhibition of cytokine-induced expression of ICAM-1 (ICAM-1),body wt. as a percent of control [1] [%],food (grams eaten per day per rat) as a percent of control [1] [%],lw/bw (liver weight/body weight) as a percent of control [1] [%],mortality at 96 h [1] [%],ALP (alkaline phosphatase) as a percent of control [2] [%],ALT (alanine aminotransferase) as a percent of control [2] [%],AST (aspartate aminotransferase) as a percent of control [2] [%],CHOL (total cholesterol) as a percent of control [2] [%],GLUC (glucose) as a percent of control [2] [%],TRIG (triglycerides) as a percent of control [2] [%],TBARS (thiobarbituric acid reactive substances) as a percent of control [3] [%],CONJ. DIENE (conjugated diene lag phase) (oxidation of lipids) [min]
S=C(S)N1CCCC1 [pyrollidine dithiocarbamate],but not ICAM-1,,,,,,,,,,,,
"CC(C)(C)c1cc(OC[Si](C)(C)c2ccco2)cc(C(C)(C)C)c1O [106,939]",,92,88,130,0,123,92,106,120,83,108,64,
CC(=O)N[C@@H](CS)C(=O)O [N-acetylcysteine],but not ICAM-1,,,,,,,,,,,,
"CC(C)(C)c1cc(OC[Si](C)(C)c2cccs2)cc(C(C)(C)C)c1O [107,965]",,84,84,118,0,137,96,89,121,86,90,57,273
